The values that follow come from patent publication US20250255889A1, “METHODS FOR TREATMENT SELECTION FOR CHRONIC LYMPHOCYTIC LEUKEMIA (CLL)” (The Broad Institute, Inc., priority 2022, published 2025).

Data set [1] concerns primary CLL samples (CD19+ and CD5+ cells). The data set is described as follows: High-throughput dynamic BH3 profiling (HT-DBP): drug-induced apoptotic priming (delta priming), cytochrome c release after BH3 peptide. The format is cell-based, human. To be noted: for priming in CLL groups: CLL sample groups compared with normal PBMCs; for drug-induced apoptotic priming: across CLL subtypes, 65 primary CLL samples, 20 hours drug. The method in brief:
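Primary CLL cells (CD19+/CD5+) are treated with the agent or DMSO carrier, then briefly exposed to a fixed concentration of a promiscuous BH3 peptide such as BIM. Mitochondrial cytochrome c release serves as the priming surrogate. Delta priming is drug-treated priming minus DMSO-treated priming, run in high-throughput format.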

Data set [2] concerns healthy PBMCs (normal cell types CD14, CD19, CD3). Kind of data set: HT-DBP delta priming in healthy donor normal cells. The format is cell-based, human. To be noted: normal peripheral blood mononuclear cells. As to the method:
FIG. 17 provides a heatmap showing median delta priming across healthy donors for the indicated normal cell types (CD14, CD19, and CD3).
The assay was robust, as indicated by an 0.92 median Pearson correlation across replicates (FIGS. 5A, 5B, 6A, and 6B). Additionally, the majority of drugs had greater effect on CLL samples than on healthy PBMCs (p<0.001, paired t-test), supporting their specificity (FIGS. 7A-7C).
Delta-priming was measured for the molecular features listed along the top of FIGS. 14, 17, and 32 using the HT-DBP screen. The molecular features included IGHV subtypes, epitypes, expression subtypes (i.e., expression clusters), mutations in driver genes, and recurrent copy-number events. A feature was included in the heatmap of FIG. 14 only if at least 2 patients in a DBP screen had the feature. Median delta-priming was computed across all BH3 peptides and across all patients within the feature. […] Plots showing molecular features for groups of 65 and 81 patients were also compiled (see FIGS. 19, 20).

The mark [3] stands for this setting: peptide BAD 0.3 uM, feature EC-m3.
Where [4] appears, read: peptide MS1 2.5 uM, feature gain_16p11.2.
Where [5] appears, read: peptide PUMA 1 uM, feature EC-m2.
[6] abbreviates: peptide PUMA 1 uM, feature loss_6q21.
Setting [7] is: peptide PUMA 1 uM, feature i-CLL.
[8] abbreviates: peptide BAD 0.3 uM, feature BIRC3.
[9] abbreviates: peptide BAD 0.3 uM, feature ITIH2.
[10] abbreviates: peptide BAD 0.3 uM, feature i-CLL.
Where [11] appears, read: peptide BAD 0.3 uM, feature loss_9p21.3.
Setting [12] is: peptide BAD 0.3 uM, feature loss_17q11.2.
The mark [13] stands for this setting: peptide BIM 0.01 uM, feature BCOR.
[14] abbreviates: peptide BIM 0.01 uM, feature n-CLL.
Setting [15] is: peptide MS1 2.5 uM, feature SAMHD1.
[16] abbreviates: peptide MS1 2.5 uM, feature BIRC3.
[17] abbreviates: peptide MS1 2.5 uM, feature ITIH2.
Where [18] appears, read: peptide MS1 2.5 uM, feature loss_9p21.3.
The mark [19] stands for this setting: peptide MS1 2.5 uM, feature loss_17q11.2.

For `CC1(C)CCC(c2ccc(Cl)cc2)=C(CN2CCN(c3ccc(C(=O)NS(=O)(=O)c4ccc(N[C@H](CCN5CCOCC5)CSc5ccccc5)c(S(=O)(=O)C(F)(F)F)c4)cc3)CC2)C1` [Navitoclax, navitoclax], in data set [1], the “priming in CLL groups” value is reported as “potentially therapeutically relevant priming”. For the same molecule, the “drug-induced apoptotic priming by expression cluster” value was “more sensitive to navitoclax than any other drug” in data set [1] (EC-i) and “most sensitive” in data set [1] (EC-u2 (U-CLL)). In addition, the direction result in data set [1] (Feature EC-m2) is recorded as “Resistant”; in data set [1] (Feature M-CLL), “Sensitive”; in data set [1] (Feature U-CLL), “Resistant”; in data set [1] (Feature n-CLL), “Resistant”; in data set [1] (setting [3]), “Sensitive”; in data set [1] (peptide BAD 0.3 uM, feature EC-u1), “Resistant”. The direction entry in data set [1] (peptide BAD 0.3 uM, feature M-CLL) is listed as “Sensitive”; in data set [1] (peptide BAD 0.3 uM, feature U-CLL), “Resistant”; in data set [1] (peptide BAD 0.3 uM, feature loss_3p21.31) it was “Sensitive”; in data set [1] (peptide BAD 0.3 uM, feature loss_5p15.33) it was “Sensitive”; in data set [1] (peptide BAD 0.3 uM, feature loss_7q36.1), “Sensitive”; in data set [1] (peptide BAD 0.3 uM, feature loss_8p), “Sensitive”. The direction entry in data set [1] (peptide BAD 0.3 uM, feature loss_12p13.31a) is “Sensitive”; in data set [1] (peptide BAD 0.3 uM, feature loss_14q32.12), “Sensitive”; in data set [1] (peptide BAD 0.3 uM, feature loss_17p13.3), “Sensitive”; in data set [1] (peptide BAD 0.3 uM, feature n-CLL) it was “Resistant”; in data set [1] (peptide BIM 0.01 uM, feature loss_3p21.31), “Sensitive”; in data set [1] (peptide BIM 0.01 uM, feature loss_7q36.1), “Sensitive”. Moreover, the direction result is listed as “Sensitive” in data set [1] (peptide BIM 0.01 uM, feature loss_8p); “Sensitive” in data set [1] (peptide BIM 0.01 uM, feature loss_14q32.12); “Sensitive” in data set [1] (peptide MS1 2.5 uM, feature MYD88); “Sensitive” in data set [1] (setting [4]); “Sensitive” in data set [1] (peptide MS1 2.5 uM, feature loss_3p21.31); “Sensitive” in data set [1] (peptide MS1 2.5 uM, feature loss_7q36.1). The direction result in data set [1] (peptide MS1 2.5 uM, feature loss_8p) is “Sensitive”; in data set [1] (peptide MS1 2.5 uM, feature loss_14q32.12), “Sensitive”; in data set [1] (setting [5]), “Resistant”; in data set [1] (peptide PUMA 1 uM, feature EC-m4), “Sensitive”; in data set [1] (setting [6]), “Resistant”; in data set [1] (peptide PUMA 1 uM, feature loss_14q32.12), “Sensitive”. In data set [1], the drug-induced apoptotic priming entry is given as “high priming”. Further, the “priming response in normal cell groups” value in data set [2] is reported as “minimal priming response”.
Consider `CC1(C)CCC(CN2CCN(c3ccc(C(=O)NS(=O)(=O)c4ccc(NCC5CCOCC5)c([N+](=O)[O-])c4)c(Oc4cnc5[nH]ccc5c4)c3)CC2)=C(c2ccc(Cl)cc2)C1` [Venetoclax, venetoclax], for which, in data set [1], the “priming in CLL groups” value is “potentially therapeutically relevant priming”. Besides, the “drug-induced apoptotic priming by expression cluster” value in data set [1] (EC-m2, within M-CLL ECs) is “least effective”; in data set [1] (EC-m3, within M-CLL ECs), “most effective”. The direction result in data set [1] (Feature EC-m2) is “Resistant”; in data set [1] (Feature loss_13q14.3), “Sensitive”; in data set [1] (setting [3]), “Sensitive”; in data set [1] (peptide BAD 0.3 uM, feature loss_13q14.3), “Sensitive”; in data set [1] (peptide BIM 0.01 uM, feature SAMHD1), “Sensitive”; in data set [1] (peptide MS1 2.5 uM, feature POT1), “Sensitive”. Further, the direction entry in data set [1] (setting [4]) is “Sensitive”; in data set [1] (peptide MS1 2.5 uM, feature loss_13q14.13), “Sensitive”; in data set [1] (setting [5]), “Resistant”; in data set [1] (setting [6]), “Resistant”. In addition, in data set [1], the drug-induced apoptotic priming entry is “highly effective”. Besides, in data set [1] (across all evaluated BH3 peptides, 42 drugs), the “positive delta priming values (rank among drugs)” value is on record as “top-ten drugs with the highest positive delta priming values”. In addition, the “delta priming value of combined treatment” value in data set [1] (combined with MS1 peptide (MCL1 inhibitor), relative to alternative treatments) was “increased delta priming value”. Further, in data set [2], the “priming response in normal cell groups” value is “minimal priming response”.
Take `O=C(CCCCCCC(=O)Nc1ccccc1)NO` [Vorinostat]: the direction entry in data set [1] (Feature EC-m2) is “Sensitive”; in data set [1] (Feature EC-m4), “Resistant”; in data set [1] (peptide BIM 0.01 uM, feature EC-m2) it was “Sensitive”; in data set [1] (peptide BIM 0.01 uM, feature EC-m4) it was “Resistant”; in data set [1] (setting [5]), “Sensitive”; in data set [1] (setting [7]), “Resistant”. For the same molecule, the direction entry in data set [1] (setting [6]) is listed as “Sensitive”.
In the case of `CN1CC[C@@H](c2c(O)cc(O)c3c(=O)cc(-c4ccc(C(F)(F)F)cc4Cl)oc23)[C@@H]1CO` [Voruciclib], the direction result in data set [1] (setting [8]) is reported as “Sensitive”; in data set [1] (setting [9]), “Sensitive”; in data set [1] (setting [10]), “Sensitive”; in data set [1] (setting [11]) it was “Sensitive”; in data set [1] (setting [12]) it was “Sensitive”; in data set [1] (setting [13]), “Resistant”. The direction entry in data set [1] (setting [14]) was “Resistant”; in data set [1] (setting [15]), “Resistant”; in data set [1] (peptide PUMA 1 uM, feature SF3B1) it was “Resistant”; in data set [1] (setting [7]), “Sensitive”. In addition, the dprim_pearson_corr was 0.3672 in data set [1] (setting [8]); 0.3672 in data set [1] (setting [9]); 0.4321 in data set [1] (setting [10]); 0.3672 in data set [1] (setting [11]); 0.3672 in data set [1] (setting [12]); −0.4056 in data set [1] (setting [13]). Besides, the dprim_pearson_corr in data set [1] (setting [14]) was −0.3372; in data set [1] (setting [15]), −0.3337.
With fludarabine, the “response (apoptotic priming)” value in data set [1] (IGHV mutated CLLs, FDR<0.1, t-test) is on record as “significant response”. Moreover, the direction entry in data set [1] (setting [16]), in data set [1] (setting [17]), in data set [1] (setting [18]) and in data set [1] (setting [19]) was “Sensitive” in each case. In addition, the dprim_pearson_corr in data set [1] (setting [16]) is 0.4431; in data set [1] (setting [17]) it was 0.5036; in data set [1] (setting [18]), 0.4431; in data set [1] (setting [19]) it was 0.4431.
